How the values were obtained:
[1] = system: C4-2 cells; test: Cytotoxicity, CellTiter-Glo cell viability assay, C4-2 cells; format: cell-based
Experimental: (§1) PC3, C4-2, and C4-2Luc cells were seeded at a density of 3,000 cells/well in 96-well plates and incubated at 37° C. under 5% CO2. Next day, the cells were treated with Dox, DAC+Dox, or DAC-D for 24 h. Next day the treatment was removed, cells were washed once with warm fresh media and incubated for another 48 h in fresh media. Cell counts were measured indirectly by measuring the ATP amounts using CellTiter-Glo® luminescent cell viability assay (Promega, Madison, Wis.) according to the manufacturer's protocol. In co-culture experiments, PC3 and C4-2Luc cells were each seeded at a density of 1,500 cells/well in 96-well plates. Co-cultured cells were treated with Dox, DAC+Dox, or DAC-D and cell viability was also measured using the CellTiter-Glo® assay. Luciferase levels were measured for co-cultures of PC3 and C4-2Luc cells using a luciferase reporter assay system (Promega). PC3 and C4-2Luc cells were seeded and treated as described above and the cells were lysed and luciferase activity was measured according to the manufacturer's protocol.

[2] = system: PC3 cells; test: Cytotoxicity, CellTiter-Glo cell viability assay, PC3 cells; format: cell-based
Experimental: as §1

[3] = system: PSMA+ C4-2 cells; test: Uptake/internalization by confocal microscopy and flow cytometry, PSMA+ C4-2 cells; format: cell-based
Experimental: (§2) Cells were seeded at 20,000 cells/well in 8-well Lab-Tek® II chambered #1.5 German coverglass system (Thermo Fisher Sci., Waltham, Mass.), and incubated at 37° C. under 5% CO2 for 2 days. Cells were incubated with 1 μM of DAC in which the dA16 aptamer was labeled with Quasar 570 at the 5′-terminus and the T16 aptamer was labeled with Quasar 670 dyes in RPMI with 10% FBS for 2 h at 37° C. Cells were washed with fresh media and DPBS, followed by a 5 min fixation with 3.7% formaldehyde in DPBS. Cells were visualized using a Zeiss LSM510 confocal microscope (Carl Zeiss, Oberkochen, Germany). Cells were also incubated with 1 μM of DAC-D (or the non-covalent DAC+D), for 2 h. DAC were only labeled with Quasar 670 for these studies as the Quasar 570 emission would interfere with the Dox emission. Cells were washed, fixed, and imaged using identical procedures.
(§3) PC3 and C4-2 cells were incubated with 1 μM of DAC for 2 h at 37° C. Dimers were fluorescently labeled with either Quasar 570 or 670 alone, or both. Cells were trypsinized and washed with PBS twice. Cells re-suspended in PBS were analyzed to measure their intracellular fluorescence using the Accuri™ C6 flow cytometer (BD Biosciences).

[4] = system: PSMA-null PC3 cells; test: Uptake/internalization by confocal microscopy and flow cytometry, PSMA-null PC3 cells; format: cell-based; settings: 1 μM, 2 h, confocal microscopy
Experimental: as §2, §3

[5] = cited from earlier work
[6] = Temperature-dependent UV melting (thermal stability of dimeric aptamer complexes); format: physicochemical; settings: UV absorbance at 260 nm, heating 0.7° C./min
Experimental: Temperature-dependent UV absorption spectra were obtained using a Beckman Coulter DU-800 UV-Vis spectrophotometer. Samples of DAC, DAC-D, and DAC+D were prepared. The temperature was increased at a rate of 0.7° C./min over the range 20-85° C. and absorbance at 260 nm was measured for each sample, (400 μL, 1 μM) concentration.

[7] = Determination of Dox:DNA ratios by absorbance; format: physicochemical
Experimental: DNA Ratios: DNA samples were prepared in dH2O, and absorbencies were measured from 200-800 nm using a Beckman Coulter DU800 spectrophotometer. A standard curve of Dox was established between 1 μM and 10 μM by using absorbencies at 494 nm at 85° C. To assess the amount of Dox covalently bound to DNA, the samples were heated to 85° C. before measuring the absorbance at 494 nm and 260 nm. The 260 nm wavelength was used to determine the DNA content in the sample and to determine the Dox:DNA ratio.

| Compound | reduction in viability ([1]; 2 μM Dox, 24 h treatment + 48 h growth, cell line not specified in the sentence (PC3 and C4-2)) [%] | cytotoxicity (in words) ([1]; C4-2 cells) | cytotoxicity (in words) [2] | Dox internalization / nuclear accumulation ([3]; 1 μM, 2 h, confocal microscopy, C4-2 cells) | Dox internalization / nuclear accumulation ([4]; PC3 cells) | pKa of the doxorubicin amino group [5] | dissociation temperature [6] [°C] | uptake of fluorescently-labeled aptamer ([3]; 1 μM, 2 h, Quasar 570/670 labels, confocal microscopy) | uptake after pre-incubation with J591 PSMA-specific monoclonal antibody ([3]; C4-2 cells pre-incubated with J591) | uptake of fluorescently-labeled aptamer ([4]; Quasar 570/670 labels) | calc ratio (Dox bound per DAC) ([7]; Dox:DAC ratio 16x) | calc ratio (Dox bound per DAC) ([7]; Dox:DAC ratio 24x) | calc ratio (Dox bound per DAC) ([7]; Dox:DAC ratio 32x) | molar equivalents of doxorubicin that can be covalently bound to each DAC ([7]; titration) [molar equivalents] |
| --- | --- | --- | --- | --- | --- | --- | --- | --- | --- | --- | --- | --- | --- | --- |
| COc1cccc2c1C(=O)c1c(O)c3c(c(O)c1C2=O)C[C@@](O)(C(=O)CO)C[C@@H]3O[C@H]1C[C@H](N)[C@H](O)[C@H](C)O1 [Dox, doxorubicin] | ~90 | highly cytotoxic | highly cytotoxic | readily accumulated | readily accumulated | 8.2 | – | – | – | – | – | – | – | – |
| DAC: Dimer of PSMA DNA aptamer SZTI01 annealed through dCGGCA16GCCG / dCGGCT16GCCG tails (SEQ ID NO:5, 6) (chain 1 CGGCAAAAAAAAAAAAAAAAGCCG; chain 2 CGGCTTTTTTTTTTTTTTTTGCCG; DNA, backbone and methylation of C not given here; tails of DNA aptamer dimer, further chemistry not fully specified) | – | – | – | – | – | – | ~58 | strong signal | attenuated | minimal uptake | 10.8 | 14.18 | 13.7156 | 14 |

Reference: patent publication US10105446B2, “Pharmaceutical compositions for high-capacity targeted delivery” (Wake Forest University Health Sciences, priority 2013, dated 2018)
